Test results reported in paper PMC5640605, “Fructose-1,6-bisphosphate couples glycolytic flux to activation of Ras” (Nature Communications, 2017).

Target: T1, Sos1 (Homo sapiens, UniProt Q07889)
T1 construct: catalytic part of Sos1 (residues 564–1049)
T1 sequence (Q07889 564-1049): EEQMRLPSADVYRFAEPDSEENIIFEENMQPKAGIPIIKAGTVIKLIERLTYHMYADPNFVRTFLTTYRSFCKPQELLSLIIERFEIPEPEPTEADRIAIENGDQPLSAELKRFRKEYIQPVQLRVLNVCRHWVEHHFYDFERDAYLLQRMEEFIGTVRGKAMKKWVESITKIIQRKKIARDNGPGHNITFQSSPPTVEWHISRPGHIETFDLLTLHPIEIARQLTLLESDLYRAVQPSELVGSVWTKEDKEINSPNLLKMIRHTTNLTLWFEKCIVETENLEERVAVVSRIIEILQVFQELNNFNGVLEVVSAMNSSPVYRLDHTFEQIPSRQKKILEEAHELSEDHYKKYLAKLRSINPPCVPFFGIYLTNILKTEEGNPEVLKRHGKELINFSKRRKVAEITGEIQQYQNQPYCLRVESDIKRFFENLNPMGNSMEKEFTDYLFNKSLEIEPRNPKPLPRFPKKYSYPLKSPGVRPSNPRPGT
Experiment: fluorescence-based thermal shift assay (SYPRO Orange) with Langmuir Kd fit; supported by BLI of Sos1/H-Ras complex dissociation (KDapp […])
Format: binding

Kd: 17.5 ± 2.2 mM
SMILES: O=P(O)(O)OC[C@H]1OC(O)(COP(=O)(O)O)[C@@H](O)[C@@H]1O (stereo partly shown) [Fru1,6bisP]
